The source made the active and inactive calls.
Key:
[1] = target: Glycogen synthase kinase-3 alpha (Homo sapiens, UniProt P49840); format: functional;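 also: GSK3A result taken from a broad kinome-wide kinase panel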
Ephrin type-A receptor 2 = Ephrin type-A receptor 2 (Homo sapiens, UniProt P29317); format: functional;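 also: EPHA2 tested as one member of a kinome-wide kinase panel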
CAAX prenyl protease 2 [2] = target: T1, CAAX prenyl protease 2 (Saccharomyces cerevisiae S288c, UniProt Q03530); format: biochemical
T1 sequence (Q03530 whole entry): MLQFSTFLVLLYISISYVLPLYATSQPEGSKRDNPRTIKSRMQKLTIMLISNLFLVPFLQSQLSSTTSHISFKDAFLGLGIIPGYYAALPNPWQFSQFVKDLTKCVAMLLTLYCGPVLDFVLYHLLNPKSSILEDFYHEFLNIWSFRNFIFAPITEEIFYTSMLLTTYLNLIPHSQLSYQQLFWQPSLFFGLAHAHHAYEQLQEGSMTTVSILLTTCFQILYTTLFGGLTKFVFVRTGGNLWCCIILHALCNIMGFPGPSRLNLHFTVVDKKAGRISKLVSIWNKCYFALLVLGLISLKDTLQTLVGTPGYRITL

[3] = mammalian cell cytotoxicity, dose response, cytotoxicity control, plate reader, cherry-pick samples (AID 504397); format: functional, cell-based
CAAX prenyl protease 2 [4] = target: T1, CAAX prenyl protease 2; assay: yeast Rce1 CaaX protease inhibitors, dose response, biochemical, plate reader, dry powder retest (AID 588851)
[5] = target: Latent membrane protein 1 (Human herpesvirus 4 (strain B95-8), UniProt P03230); assay: TES1-eGFP NF-kB reporter inhibition versus Tet-On dsRED, dose response, selectivity assay for LMP1 NF-kB inhibitor project, imaging, HEK293T, dual-color eGFP/dsRED, cherry-picks (AID 588398); format: functional, cell-based
Latent membrane protein 1, sequence (P03230 whole entry): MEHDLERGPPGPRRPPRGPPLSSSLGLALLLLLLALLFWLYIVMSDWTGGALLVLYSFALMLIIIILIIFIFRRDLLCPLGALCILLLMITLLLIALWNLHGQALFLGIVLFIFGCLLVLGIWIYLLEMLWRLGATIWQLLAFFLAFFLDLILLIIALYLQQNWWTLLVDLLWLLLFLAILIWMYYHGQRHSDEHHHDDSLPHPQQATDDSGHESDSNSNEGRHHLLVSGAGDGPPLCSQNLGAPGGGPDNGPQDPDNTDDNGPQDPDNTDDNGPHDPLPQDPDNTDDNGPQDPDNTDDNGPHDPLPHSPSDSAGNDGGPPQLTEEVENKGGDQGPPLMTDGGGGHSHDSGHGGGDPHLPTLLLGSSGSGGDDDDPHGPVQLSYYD

[6] = NIH-3T3 fibroblast cytotoxicity, dose response, cytotoxicity control, cell-based, fluorescence, Alamar Blue, secondary assay (AID 2327); format: functional;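 also: NIH-3T3 mouse fibroblasts cultured with fluconazole at 8 µg/mL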
[7] = C. albicans growth with fluconazole, confirmation, fluorescence, retest (AID 2467); format: functional, cell-based
[8] = target: Protein disulfide-isomerase (Homo sapiens, UniProt P07237); assay: PDI inhibitors, insulin aggregation turbidity, dose response, biochemical, absorbance, cherry-picked samples (AID 602350); format: functional
Protein disulfide-isomerase, sequence (P07237 whole entry, the tested form may be a part): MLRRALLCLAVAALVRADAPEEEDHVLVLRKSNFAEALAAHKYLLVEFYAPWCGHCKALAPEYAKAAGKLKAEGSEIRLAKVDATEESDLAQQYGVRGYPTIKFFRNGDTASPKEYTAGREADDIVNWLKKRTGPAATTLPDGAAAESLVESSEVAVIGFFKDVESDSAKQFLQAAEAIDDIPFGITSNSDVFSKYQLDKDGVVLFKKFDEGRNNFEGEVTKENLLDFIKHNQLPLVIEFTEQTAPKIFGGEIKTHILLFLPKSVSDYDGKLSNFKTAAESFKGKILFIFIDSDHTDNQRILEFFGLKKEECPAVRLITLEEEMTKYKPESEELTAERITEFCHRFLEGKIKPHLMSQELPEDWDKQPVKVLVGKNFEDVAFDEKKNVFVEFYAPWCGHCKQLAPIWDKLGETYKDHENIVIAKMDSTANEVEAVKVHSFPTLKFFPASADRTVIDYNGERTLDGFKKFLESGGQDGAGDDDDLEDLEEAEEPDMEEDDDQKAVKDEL

[9] = target: T2, Hepatocyte nuclear factor 4-alpha (Homo sapiens, UniProt P41235); format: functional, cell-based;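 also: biochemical luminescence-based dose-response counterscreen measuring inhibition of HNF4 dimerization, run alongside a screen for blockers of ABHD5–perilipin-5 interaction; split luciferase complementation of HNF4 fusion proteins in cell lysate measuring dimerization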
T2 sequence (P41235 whole entry): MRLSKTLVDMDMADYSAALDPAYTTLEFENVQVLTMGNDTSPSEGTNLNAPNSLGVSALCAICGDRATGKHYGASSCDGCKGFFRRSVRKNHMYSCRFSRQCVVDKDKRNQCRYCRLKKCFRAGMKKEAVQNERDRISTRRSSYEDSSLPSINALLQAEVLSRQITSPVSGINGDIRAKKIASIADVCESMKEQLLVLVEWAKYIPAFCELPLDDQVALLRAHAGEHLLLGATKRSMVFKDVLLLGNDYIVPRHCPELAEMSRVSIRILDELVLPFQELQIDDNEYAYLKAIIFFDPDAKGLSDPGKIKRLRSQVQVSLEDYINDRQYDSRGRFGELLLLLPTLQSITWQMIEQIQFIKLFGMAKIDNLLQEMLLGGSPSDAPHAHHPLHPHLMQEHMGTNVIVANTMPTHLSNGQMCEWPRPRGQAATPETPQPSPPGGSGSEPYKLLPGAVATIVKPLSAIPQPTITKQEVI

[10] = inhibitors of cytokine-induced nitrite release, dose response, cell-based, Griess absorbance, INS-1E, dry powder, set 3 (AID 488870); format: functional; details: Rattus norvegicus
INS1 [11] = assay: inhibitors of cytokine-induced nitrite release, dose response, cell-based, Griess absorbance, INS-1E, dry powder, set 2 (AID 488868); format: functional; details: Rattus norvegicus
INS1 [12] = assay: INS-1E beta-cell viability without cytokines, dose response, cytotoxicity control for beta-cell cytokine protection project, CellTiter-Glo luminescence, dry powder (AID 488864); format: functional, cell-based; details: Rattus norvegicus
H9c2 = assay: cells; format: functional, cell-based; details: Rattus norvegicus, H9c2, Myocardium;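 also: confirmatory concentration-response retest of ultra-high-throughput screening hits for modulation of myocardial damage; cell death induced by hydrogen peroxide oxidative stress; compound pretreatment for 60 min then peroxide exposure for 2 h; potency is for protecting the cells against peroxide damage rather than for killing them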
[13] = target: T3, High affinity choline transporter 1 (Homo sapiens, UniProt Q9GZV3); assay: CHT activators, dose response, cell-based, 10-point CRC, membrane potential dye (AID 602376); format: functional
T3 sequence (Q9GZV3 whole entry): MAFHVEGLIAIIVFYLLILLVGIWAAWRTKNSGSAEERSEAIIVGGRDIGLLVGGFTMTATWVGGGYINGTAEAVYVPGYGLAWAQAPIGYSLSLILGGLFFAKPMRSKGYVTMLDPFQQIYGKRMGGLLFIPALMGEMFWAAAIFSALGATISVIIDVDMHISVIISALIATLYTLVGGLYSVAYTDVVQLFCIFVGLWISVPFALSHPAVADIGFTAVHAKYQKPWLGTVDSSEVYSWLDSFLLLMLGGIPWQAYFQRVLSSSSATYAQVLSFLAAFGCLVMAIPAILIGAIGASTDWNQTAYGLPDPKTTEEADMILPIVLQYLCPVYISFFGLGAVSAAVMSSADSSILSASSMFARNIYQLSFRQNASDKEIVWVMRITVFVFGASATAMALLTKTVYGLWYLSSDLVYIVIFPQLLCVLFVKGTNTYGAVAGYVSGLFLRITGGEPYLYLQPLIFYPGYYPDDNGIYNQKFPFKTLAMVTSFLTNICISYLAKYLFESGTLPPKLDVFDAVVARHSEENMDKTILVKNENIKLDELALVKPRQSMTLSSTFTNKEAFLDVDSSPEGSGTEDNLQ

[14] = target: T4, Sentrin-specific protease 8 (Homo sapiens, UniProt Q96LD8); assay: SENP8 protease inhibitors, SAR follow-up, biochemical, luminescence (AID 504501); format: functional
T4 sequence (Q96LD8 whole entry): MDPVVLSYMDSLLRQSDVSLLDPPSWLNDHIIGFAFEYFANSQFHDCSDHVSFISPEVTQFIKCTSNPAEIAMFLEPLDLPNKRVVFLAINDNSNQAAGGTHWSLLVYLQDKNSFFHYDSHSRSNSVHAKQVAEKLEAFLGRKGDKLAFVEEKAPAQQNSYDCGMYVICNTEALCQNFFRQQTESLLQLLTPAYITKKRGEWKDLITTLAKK

Caspase-3 [15] = target: T5, Caspase-3 (Homo sapiens, UniProt P42574); assay: caspase-3 inhibitors as off-family protease, SAR follow-up, selectivity assay for SENP protease inhibitor project, biochemical, luminescence, set 2 (AID 588599); format: functional
T5 sequence (P42574 whole entry): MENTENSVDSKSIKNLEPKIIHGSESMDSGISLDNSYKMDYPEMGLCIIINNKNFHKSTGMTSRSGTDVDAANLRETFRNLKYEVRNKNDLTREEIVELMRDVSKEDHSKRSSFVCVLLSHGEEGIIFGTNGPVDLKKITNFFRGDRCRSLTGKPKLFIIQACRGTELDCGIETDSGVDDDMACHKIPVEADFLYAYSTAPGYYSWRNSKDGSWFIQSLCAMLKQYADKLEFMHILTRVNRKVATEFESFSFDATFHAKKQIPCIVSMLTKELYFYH

[16] = target: T4, Sentrin-specific protease 8; assay: SENP8 protease inhibitors, SAR follow-up, biochemical, luminescence, set 2 (AID 588601); format: functional
Caspase-3 [17] = target: T5, Caspase-3; assay: SAR Analysis of small molecule inhibitors of Sentrin-specific proteases (SENPs) using a Caspase-3 Selectivity assay. [Related pubchem assays (depositor defined):AID2540, AID2599, AID434973, AID489001]; format: functional
[18] = target: T6, Sentrin-specific protease 7 (Homo sapiens, UniProt Q9BQF6); assay: SENP7 protease inhibitors, SAR follow-up, biochemical, luminescence, set 2 (AID 588600); format: functional
T6 sequence (Q9BQF6 whole entry): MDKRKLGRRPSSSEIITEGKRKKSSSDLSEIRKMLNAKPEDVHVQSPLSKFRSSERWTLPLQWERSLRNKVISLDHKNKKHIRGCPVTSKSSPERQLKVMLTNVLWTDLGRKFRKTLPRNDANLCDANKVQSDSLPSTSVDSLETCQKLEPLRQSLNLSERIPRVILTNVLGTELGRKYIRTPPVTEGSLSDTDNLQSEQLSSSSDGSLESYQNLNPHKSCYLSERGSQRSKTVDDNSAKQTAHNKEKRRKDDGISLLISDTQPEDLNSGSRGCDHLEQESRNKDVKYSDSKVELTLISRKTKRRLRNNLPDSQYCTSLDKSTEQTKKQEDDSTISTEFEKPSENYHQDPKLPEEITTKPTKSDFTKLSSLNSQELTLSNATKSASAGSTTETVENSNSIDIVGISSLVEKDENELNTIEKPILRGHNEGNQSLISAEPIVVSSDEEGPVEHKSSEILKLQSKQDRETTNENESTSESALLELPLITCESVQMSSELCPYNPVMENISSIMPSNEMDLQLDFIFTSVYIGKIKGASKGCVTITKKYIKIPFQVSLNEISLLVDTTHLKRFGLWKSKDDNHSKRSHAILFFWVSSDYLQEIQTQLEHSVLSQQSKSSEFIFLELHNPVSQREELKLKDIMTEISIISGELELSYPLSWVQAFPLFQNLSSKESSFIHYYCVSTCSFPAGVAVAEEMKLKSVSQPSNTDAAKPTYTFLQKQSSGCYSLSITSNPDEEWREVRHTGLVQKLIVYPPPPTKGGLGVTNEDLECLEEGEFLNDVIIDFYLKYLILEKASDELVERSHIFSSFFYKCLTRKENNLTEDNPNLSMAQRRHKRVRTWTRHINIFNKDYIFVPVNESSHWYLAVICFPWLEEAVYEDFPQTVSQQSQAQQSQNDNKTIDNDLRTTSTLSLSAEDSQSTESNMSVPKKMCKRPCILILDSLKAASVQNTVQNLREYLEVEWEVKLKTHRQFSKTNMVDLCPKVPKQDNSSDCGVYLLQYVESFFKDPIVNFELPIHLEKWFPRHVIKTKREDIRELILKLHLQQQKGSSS

[19] = target: T7, Sentrin-specific protease 6 (Homo sapiens, UniProt Q9GZR1); assay: SAR Analysis of small molecule inhibitors of Sentrin-specific protease 6 (SENP6) using a Luminescent assay. [Related pubchem assays (depositor defined):AID2582, AID2599]; format: functional
T7 sequence (Q9GZR1 whole entry): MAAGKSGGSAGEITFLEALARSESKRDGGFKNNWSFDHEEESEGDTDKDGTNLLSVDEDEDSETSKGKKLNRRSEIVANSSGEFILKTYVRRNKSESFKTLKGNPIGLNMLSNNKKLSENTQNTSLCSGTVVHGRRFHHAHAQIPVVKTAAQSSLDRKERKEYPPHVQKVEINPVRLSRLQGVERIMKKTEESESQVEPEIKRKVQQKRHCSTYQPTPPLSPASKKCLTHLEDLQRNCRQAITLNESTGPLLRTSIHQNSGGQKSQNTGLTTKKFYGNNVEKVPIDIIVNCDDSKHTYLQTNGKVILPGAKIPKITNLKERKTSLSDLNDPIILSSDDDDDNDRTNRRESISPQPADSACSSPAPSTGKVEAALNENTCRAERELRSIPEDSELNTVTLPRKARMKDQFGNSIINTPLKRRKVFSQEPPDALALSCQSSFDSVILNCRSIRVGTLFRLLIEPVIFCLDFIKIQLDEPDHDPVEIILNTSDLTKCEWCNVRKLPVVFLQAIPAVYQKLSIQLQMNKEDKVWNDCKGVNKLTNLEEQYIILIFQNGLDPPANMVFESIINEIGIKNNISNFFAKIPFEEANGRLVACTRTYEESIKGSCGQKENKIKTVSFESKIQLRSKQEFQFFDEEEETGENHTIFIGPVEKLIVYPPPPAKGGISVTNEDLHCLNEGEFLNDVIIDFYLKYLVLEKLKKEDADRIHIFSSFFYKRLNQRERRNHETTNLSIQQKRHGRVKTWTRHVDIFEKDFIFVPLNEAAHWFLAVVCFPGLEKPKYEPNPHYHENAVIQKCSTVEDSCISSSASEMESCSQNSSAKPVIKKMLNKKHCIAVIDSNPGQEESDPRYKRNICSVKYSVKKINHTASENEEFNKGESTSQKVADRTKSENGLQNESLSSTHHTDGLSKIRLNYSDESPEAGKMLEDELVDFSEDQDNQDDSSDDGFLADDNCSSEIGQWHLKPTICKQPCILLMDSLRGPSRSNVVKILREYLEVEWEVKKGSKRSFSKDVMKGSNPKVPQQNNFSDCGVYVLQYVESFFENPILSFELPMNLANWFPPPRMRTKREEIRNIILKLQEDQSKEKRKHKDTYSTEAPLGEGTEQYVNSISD

[20] = target: T7, Sentrin-specific protease 6; assay: SENP6 protease inhibitors, SAR follow-up, biochemical, luminescence, set 2 (AID 588598); format: functional
[21] = target: T6, Sentrin-specific protease 7; assay: SENP7 protease inhibitors, SAR follow-up, biochemical, luminescence (AID 504497); format: functional

Glycogen synthase kinase-3 alpha, sequence (P49840 whole entry): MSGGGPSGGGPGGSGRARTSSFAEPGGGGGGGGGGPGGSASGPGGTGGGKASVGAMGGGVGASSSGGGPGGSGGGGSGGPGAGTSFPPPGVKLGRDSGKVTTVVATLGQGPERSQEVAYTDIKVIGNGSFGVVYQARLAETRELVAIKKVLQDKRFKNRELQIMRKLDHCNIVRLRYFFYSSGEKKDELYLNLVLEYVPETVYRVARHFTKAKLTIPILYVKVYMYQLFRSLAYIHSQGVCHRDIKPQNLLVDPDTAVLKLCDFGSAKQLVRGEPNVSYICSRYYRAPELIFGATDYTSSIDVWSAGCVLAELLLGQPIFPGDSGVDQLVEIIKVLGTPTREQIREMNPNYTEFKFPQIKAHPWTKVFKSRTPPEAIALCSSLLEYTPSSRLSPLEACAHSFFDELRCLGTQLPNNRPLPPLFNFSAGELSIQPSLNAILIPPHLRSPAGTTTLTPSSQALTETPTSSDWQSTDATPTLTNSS
Ephrin type-A receptor 2, sequence (P29317 whole entry): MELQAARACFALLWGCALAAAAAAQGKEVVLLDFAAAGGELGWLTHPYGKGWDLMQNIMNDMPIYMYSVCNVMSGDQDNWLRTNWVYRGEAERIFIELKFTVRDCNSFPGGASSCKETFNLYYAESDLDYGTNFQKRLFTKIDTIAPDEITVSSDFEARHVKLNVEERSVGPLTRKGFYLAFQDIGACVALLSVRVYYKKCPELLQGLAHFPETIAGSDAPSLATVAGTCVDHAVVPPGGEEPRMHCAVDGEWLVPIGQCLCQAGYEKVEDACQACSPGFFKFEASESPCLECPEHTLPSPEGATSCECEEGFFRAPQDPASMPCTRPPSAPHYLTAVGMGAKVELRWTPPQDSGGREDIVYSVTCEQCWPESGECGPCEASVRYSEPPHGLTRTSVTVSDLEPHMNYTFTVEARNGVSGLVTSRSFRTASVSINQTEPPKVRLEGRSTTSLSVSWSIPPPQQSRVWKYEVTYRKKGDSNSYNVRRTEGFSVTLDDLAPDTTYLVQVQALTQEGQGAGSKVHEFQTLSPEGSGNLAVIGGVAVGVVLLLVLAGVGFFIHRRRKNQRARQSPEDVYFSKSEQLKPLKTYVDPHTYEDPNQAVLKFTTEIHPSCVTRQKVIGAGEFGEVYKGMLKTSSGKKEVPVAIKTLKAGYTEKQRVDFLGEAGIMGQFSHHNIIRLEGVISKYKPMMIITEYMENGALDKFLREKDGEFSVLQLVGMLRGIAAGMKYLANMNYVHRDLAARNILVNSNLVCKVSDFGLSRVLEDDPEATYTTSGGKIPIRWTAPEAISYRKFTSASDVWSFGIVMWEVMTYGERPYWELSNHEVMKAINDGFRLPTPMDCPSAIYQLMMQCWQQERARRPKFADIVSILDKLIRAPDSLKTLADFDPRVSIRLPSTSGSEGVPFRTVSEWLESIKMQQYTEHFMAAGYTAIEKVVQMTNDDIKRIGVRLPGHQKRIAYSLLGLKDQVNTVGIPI

SMILES: Cc1ccc(NC(=O)c2cnn3c(-c4ccccc4)ccnc23)cc1C
- Ki [1]: 7.94 µM (active)
- Ki (Ephrin type-A receptor 2): 2 µM (active)

SMILES: Cc1ccc(SCc2c(C(=O)N/N=C/c3ccccc3)nnn2-c2nonc2N)cc1
- AC50 (CAAX prenyl protease 2 [2]): 0.141 µM (active)
- AC50 [3]: 73 µM (active)
- AC50 (CAAX prenyl protease 2 [4]): 3.7 µM (active)

SMILES: O=C(Nc1ccccn1)NC1CCCCC1
- AC50 [5]: 66.5 µM (active)

SMILES: O=C(/C=C/c1ccc(NC(=O)c2ccccc2-c2ccccc2C(=O)O)cc1)c1ccccc1
- EC50 [6]: > 150 µM (inactive)
- EC50 [7]: > 38 µM (not active)
- AC50 [8]: 11.4 µM (active)
- IC50 [9]: 8.66 µM (active)

SMILES: C[C@@H]1CN([C@@H](C)CO)C(=O)c2cccc(NC(=O)Nc3cccc4ccccc34)c2O[C@H]1CN(C)S(=O)(=O)c1ccc(OC(F)(F)F)cc1
- AC50 [10]: 20.3 µM (active)
- AC50 (INS1 [11]): 16.5 µM (active)
- AC50 (INS1 [12]): 18.5 µM (active)

SMILES: COC(=O)c1ccc(C(NC(=O)OCc2ccccc2)/C(C)=C/[C@@H](C)C(=O)NCc2ccc(OC)c(OC)c2)cc1 (stereo partly drawn)
- IC50 (H9c2): 10.6 µM (active)
- EC50 [13]: 12.3 µM (active)

SMILES: COc1ccc(/C=C/c2noc(-c3ccccc3O)n2)cc1
- IC50 [14]: 1.3 µM (active)
- IC50 (Caspase-3 [15]): 1.17 µM (active)
- IC50 [16]: 1.19 µM (active)
- IC50 (Caspase-3 [17]): 1.4 µM (active)
- IC50 [18]: 1.35 µM (active)
- IC50 [19]: 1.4 µM (active)
- IC50 [20]: 1.26 µM (active)
- IC50 [21]: 1.1 µM (active)
